“Also recorded” adds a separate entry of the source. Read-outs that look alike come from different tables or passages of the source.
Legend:
IP receptor = molecular target: T1, IP receptor (Homo sapiens, UniProt P43119); experiment: In-vitro agonist activity on IP receptor, FLIPR calcium test in IP/HEK293 cells; assay type: cell-based; details: 10 concentrations, 10-fold dilutions
T1 construct: host or cells: HEK293 (IP/HEK293 cell line)
Description: The specific method is as follows: The IP/HEK293 cell line was provided by WuXi AppTec (Shanghai) Co., Ltd. Well-grown IP/HEK293 cells were taken out from the incubator, the culture solution was aspirated, the cells were washed with D-PBS and digested with trypsin EDTA, and then added with a cell culture solution, and the cells were fully suspended by repeated pipetting. The cells were centrifuged at room temperature, the supernatant was aspirated, a culture medium was added, and the cells were resuspended by repeated pipetting with a sterile pipette. After counting living cells with Vi-CELL™, 20 µL (20,000 cells/well) of cell suspension was added to a 384-well cell culture plate and incubated in a 5% CO2 incubator at 37°C overnight. 1 mL of FLIPR test buffer was added with 77 mg of probenecid to prepare 250 mM probenecid solution. After thawing a bottle of 2XFluo-4 DirectTM (F10471), the bottle was added with 10 mL of FLIPR test buffer containing 500 uM AEBSF, and each 10 mL of Fluo-Direct was added with 0.2 mL of probenecid, with a final concentration of 2.5 mM. The mixture was vortexed and then allowed to stand in the dark for more than 5 minutes. Each compound was placed in a water bath at 25°C for 30 minutes. Then, these compounds were sequentially diluted 10-fold with Bravo, with a total of 10 concentrations, for testing. 750 nL of each compound was transferred to a 384-well compound plate with ECHO. Then, the compound plate was added with 30 µL of detection buffer. The 384-well cell culture plate was taken out from the incubator, the culture medium was discarded, and 20 µL of test buffer and 20 µL of 2X Fluo-4 DirectTM No-Wash loading buffer were added with a pipette. The cell culture plate was incubated in a 5% CO2 incubator at 37°C for 50 minutes and incubated at room temperature for 10 minutes. The cell culture plate, the compound plate and a tip box were placed into FLIPR, FLIPRTETRA test program was operated, 10 µL of reference compound and 10 µL of test compound were aspirated from the compound plate to the cell culture plate, fluorescence signals were read, and then data were processed. The data were analyzed by using Prism.

SD rats [1] = experiment: U46619-induced rat acute pulmonary arterial pressure rise model, airway nebulized administration (RVSP); assay type: in vivo; details: for antihypertensive effect and duration, overall: 1 to 48 hours after airway nebulized administration; for antihypertensive effect: equimolar to 13.3 µg/kg TRE
Text: U46619 was a stable analogue of thromboxane A2 (TXA2), which activated the downstream IP3 signal by binding to the thromboxane A2 receptor to promote vasoconstriction, platelet aggregation and the like. Influences of compound C16-TR and equimolar compounds Ia-1, Ia-2, Ia-3, R-11 and R-12 at different time points after airway nebulized administration on pulmonary hypertension of rats were studied by using the U46619-induced rat pulmonary arterial pressure rise mode, which were compared with that of equimolar TRE after airway nebulized administration.
Preparation of test sample: a required amount of compound TRE was taken and added into a sterile EP tube, and each tube was added with an appropriate amount of DMSO for dissolution to prepare a stock solution (100 mg/mL). Compounds C16-TR, la-1, la-2, Ia-3, R-11 and R-12 were added with appropriate amounts of DMSO and dissolved in the original bottles to prepare stock solutions (100 mg/mL), and then the stock solutions were transferred to sterile EP tubes. Each above stock solution was hermetically stored in the dark in a refrigerator at 4°C. When the stock solution was tested, an appropriate amount of stock solution was taken and added into a new sterile EP tube, and diluted with DMSO and 1×PBS to a target concentration (working solution) wherein the solvent was 3% DMSO/1×PBS.
Preparation of modeling agent: 900 µL of methyl acetate was added into an original bottle of U46619 and mixed evenly to prepare 1 mg/mL(1 µg/µL) stock solution, which was divided into 10 µL (1 µg/µL) per sterile EP tube and stored in a refrigerator at -20°C. On the day of modeling, the stock solution was taken out and balanced at room temperature and constant temperature, and each tube was added with an appropriate amount of 0.9% sodium chloride solution (sterile) to be diluted 20-fold, so as to prepare a working solution with a concentration of 50 ng/µL.
Airway nebulized administration dosages of compound TRE and the test compounds were equimolar quantities calculated based on TRE. The dosage of compound TRE group (n=3) was 13.3 µg/kg, the dosage of compound C16-TR group (n=5) was 20.9 µg/kg, the dosage of compound Ia-1 group (n=3) was 21.2 µg/kg, the dosage of compound Ia-2 group (n=6) was 22.1 µg/kg, the dosage of compound Ia-3 group (n=6) was 23.1 µg/kg, the dosage of compound R-11 group (n=3) was 21.9 µg/kg, and the dosage of compound R-12 group (n=3) was 21.7 µg/kg. There were also a model control group (n=1) and a solvent control group (n=3).
The SD rats were injected with U46619 (25 µg /kg) through the left jugular vein at different time points after airway nebulized administration, the peak value of RVSP rise after injection with U46619 was observed and recorded, and the inhibition percentage on the RVSP rise was calculated by comparing with the basic RVSP value. The rats in the model control group were administered with U46619 by intravenous injection immediately after successful catheterization and measurement of the basic RVSP. RVSP of all animals were detected by right cardiac catheterization, and respiratory conditions of the animals were observed generally. Table-2 Time points of administrating U46619 in various groups

[2] = inhaled treprostinil; cited from earlier work
EP2 receptor = molecular target: T2, EP2 receptor (Homo sapiens, UniProt P43116); experiment: Competitive binding to EP2 receptor against radiolabeled ligand 3H-PGE2; details: 8 concentrations from 10 µM, 10-fold dilutions
T2 construct: purchased Merck HTS185M
T2 sequence (P43116 whole entry): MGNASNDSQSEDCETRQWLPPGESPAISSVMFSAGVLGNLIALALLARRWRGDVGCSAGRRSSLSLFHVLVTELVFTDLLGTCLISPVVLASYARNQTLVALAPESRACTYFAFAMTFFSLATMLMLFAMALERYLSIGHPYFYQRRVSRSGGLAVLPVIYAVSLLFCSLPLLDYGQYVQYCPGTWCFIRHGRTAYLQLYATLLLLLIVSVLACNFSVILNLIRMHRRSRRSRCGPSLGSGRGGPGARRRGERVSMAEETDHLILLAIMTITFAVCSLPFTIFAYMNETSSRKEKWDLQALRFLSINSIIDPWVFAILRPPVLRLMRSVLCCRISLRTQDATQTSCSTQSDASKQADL
Description: This experiment was carried out in 96-well plates to evaluate the binding affinity of the compounds of the present invention (Ia-1, Ia-2 and Ia-3) to the prostaglandin EP2 receptor by testing their ability of competitive binding to the EP2 receptor with the radiolabeled ligand ^3H-PGE2. Treprostinil was used as control. MicroBeta2 was used to detect the number of ^3H captured, and Prism software was used to analyze data. The EP2 film (Merck, Cat# HT[…], batch number 2121326) was diluted with a buffer (50 mM Hepes, PH=7.4, 5 mM MgCl2, 1 mM CaCl2, 0.5% BSA) to a final concentration of 75 μg/mL. ^3H-PGE2 was diluted to 15 nM. Test compound and control compound solutions with an initial concentration of 10 μM were prepared, and subjected to 10-fold continuous gradient dilution, with a total of 8 concentrations for testing. 5%DMSO was used as a solvent control group. 1 μL of each compound solution was added into a corresponding position in the 96-well test plate, and each well was added with 50 μL of the EP2 film (about 3.75 μg/well), and added with 50 μ L of ^3H-PGE2. Then, the well plate was sealed, and incubated with shaking at 300 rpm at room temperature for 2 hours. After finishing the incubation, GF/C plates were filtered with Perkin Elmer Filtermate Harvester, and then each plate was washed with cold eluent for 4 times, and dried at 50°C for 1 hour. After drying, bottoms of wells of the filter plate were sealed with a PerkinElmer Unifilter-96 backing tape. 50 μL of Perkin Elmer Microscint O was added. The top of the filter plate was sealed with Perkin Elmer TopSeal-A sealing film. The number of ^3H captured was detected by MicroBeta2.

subjects = details: cited from earlier work
SD rats [3] = experiment: U46619-induced rat acute pulmonary arterial pressure rise model, low-dose airway nebulized administration (RVSP); assay type: in vivo; details: for Inhibition percentage on RVSP rise (%) (mean): 1 hour after low-dose airway nebulized administration (about 3 µg/kg, equimolar)
Text: In this experiment, airway nebulized administration dosages of the compounds were about 1/7 of airway nebulized administration dosages in Experimental Example 5. By using a U46619-induced rat acute pulmonary arterial pressure rise model, antihypertensive effects of the compounds of the present invention after airway nebulized administration were further verified by reducing the administration dosages.
A model construction method was the same as that described in Experimental Example 5. In this experiment, dosages of groups were as follows: the dosage of compound C16-TR group was 3 µg/kg, and the dosages of equimolar compounds Ia-1, Ia-2 and Ia-3 were 3.0 µg/kg, 3.2 µg/kg and 3.3 µg/kg respectively.
The SD rats were anesthetized and then administered by airway nebulization, and then the basic right ventricular systolic pressure (RVSP) was measured by right cardiac catheterization. The SD rats were intravenously injected with U46619 (25 µg /kg) at 1 hour after airway nebulized administration of each compound, a peak value of RVSP rise after injection with U46619 was observed and recorded, and the inhibition percentage on the RVSP rise was calculated by comparing with the basic RVSP value. The number of experimental animals in each group was 1~2.

porcine esterase = experiment: Hydrolysis conversion rate of compounds into TRE mediated by porcine esterase; details: experiment (c); 0.2 mg/mL, 20 U porcine esterase, 38°C; 5 minutes to 2 hours
Description: This experiment was designed to evaluate the conversion rates of various compounds with different ester side chain structures into the TRE under the action of esterase.
The carbon number of the ester side chain of each compound was 10, wherein the alkyl side chains of R-05, R-06 and R-08 contained 1~3 oxygen atoms respectively. Each compound was dissolved in 20 mL of ethanol to prepare a 1 mg/ml test compound solution for later use. Then, 1 mL of the test compound solution was transferred into 4 mL of PBS aqueous solution to obtain 0.2 mg/mL test compound reaction solution. The reaction solution was added with 20 U (80 µL) of porcine esterase, shaken evenly and then incubated at 38°C. After a period of reaction, samples were taken according to the following time points: 10 minutes, 30 minutes, 1 hour and 2 hours. The conversion of the test compound into TRE was detected. The hydrolysis of each sample was calculated according to measured peak areas of the reactant and the product: [formula]
Sampling time points were: 20 minutes, 40 minutes, 1 hour and 2 hours.
Sampling time points were: 5 minutes, 15 minutes, 30 minutes, 1 hour and 2 hours.

[4] = cited from earlier work
[5] = 16 hours after airway nebulized administration

T1 sequence (P43119 whole entry): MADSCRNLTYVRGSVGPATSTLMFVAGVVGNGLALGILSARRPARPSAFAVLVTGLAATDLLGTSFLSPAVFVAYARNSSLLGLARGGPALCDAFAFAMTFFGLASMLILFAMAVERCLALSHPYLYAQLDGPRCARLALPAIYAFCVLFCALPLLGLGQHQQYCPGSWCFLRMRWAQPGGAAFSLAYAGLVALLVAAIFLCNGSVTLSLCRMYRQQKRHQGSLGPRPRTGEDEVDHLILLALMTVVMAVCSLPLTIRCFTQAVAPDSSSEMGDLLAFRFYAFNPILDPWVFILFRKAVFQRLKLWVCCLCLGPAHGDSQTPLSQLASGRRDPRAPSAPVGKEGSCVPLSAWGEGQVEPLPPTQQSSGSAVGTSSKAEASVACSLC

Row | agonist activity on IP receptor (IP receptor) | binding to the EP2 receptor (competition with 3H-PGE2) (EP2 receptor) | SMILES | inhibition percentage on the RVSP rise (SD rats [1]; 13.3 µg/kg, 16 minutes after airway nebulized administration) | half-life [2] | side effects (subjects; 170 µg/kg and 340 µg/kg) | side effects (subjects; low dose (54 µg/kg)) | antihypertensive effect (SD rats [3]; 1 hour after low-dose airway nebulized administration) | Inhibition percentage on RVSP rise (%) (mean) (SD rats [3]) | antihypertensive effect and duration, overall (SD rats [1]; equimolar doses) | antihypertensive effect (SD rats [1]; [5]) | hydrolysis conversion rates (release of TRE) (porcine esterase) | physical stability in solution on long-term storage ([4]; HFA propellant with ethanol and DSPE-PEG2000, storage >1 week) | solubility in HFA propellant ([4]; content of ethanol lower than 13%) | reaction of dissolved compound with the alcohol solvent ([4]; dissolved state, ethanol) | antihypertensive effects compared with C16-TR (SD rats [1]; 1 hour and 6 hours after airway nebulized administration, equimolar doses) | antihypertensive effect (SD rats [1]; 24 hours after airway nebulized administration)
1 |  |  | CCCCCCCCCCCCCCCCOC(=O)COc1cccc2c1C[C@H]1C[C@@H](O)[C@H](CC[C@@H](O)CCCCC)[C@H]1C2 [Compound C16-TR, treprostinil palmitate] |  |  | developed cough and sore throat | no side effects such as cough or sore throat | no antihypertensive effect | 5.49 | long-term antihypertensive effects | no antihypertensive effect | significantly prolong the hydrolysis conversion rates and release TRE slowly and steadily | could not remain soluble | could not be dissolved | generates ester exchange impurities with the alcohol solvent; also recorded: can react with ethanol, leading to substitution of the C16 ester by an ethyl ester |  | 
2 | no agonist activity | no detectable binding | CCCCC[C@H](O)CC[C@@H]1[C@H]2Cc3cccc(OCC(=O)OCCCCCCOCCCCc4ccccc4)c3C[C@H]2C[C@H]1O [Compound Ia-1] |  |  |  |  |  | 67.67 |  | no antihypertensive effect |  |  |  |  | better than those of C16-TR | 
3 | no agonist activity | no detectable binding | CCCCC[C@H](O)CC[C@@H]1[C@H]2Cc3cccc(OCC(=O)OCCCCCCCCCCOCCCCc4ccccc4)c3C[C@H]2C[C@H]1O [Compound Ia-3] |  |  |  |  |  | 83.49 | stronger antihypertensive effects than C16-TR and longer durations |  |  |  |  |  |  | obvious antihypertensive effects

Row | SMILES | agonist activity on IP receptor (IP receptor) | binding to the EP2 receptor (competition with 3H-PGE2) (EP2 receptor) | inhibition percentage on the RVSP rise (SD rats [1]; 13.3 µg/kg, 16 minutes after airway nebulized administration) | half-life [2] | side effects (subjects; 170 µg/kg and 340 µg/kg) | side effects (subjects; low dose (54 µg/kg)) | antihypertensive effect (SD rats [3]; 1 hour after low-dose airway nebulized administration) | Inhibition percentage on RVSP rise (%) (mean) (SD rats [3]) | antihypertensive effect and duration, overall (SD rats [1]; equimolar doses) | antihypertensive effect (SD rats [1]; [5]) | hydrolysis conversion rates (release of TRE) (porcine esterase) | physical stability in solution on long-term storage ([4]; HFA propellant with ethanol and DSPE-PEG2000, storage >1 week) | solubility in HFA propellant ([4]; content of ethanol lower than 13%) | reaction of dissolved compound with the alcohol solvent ([4]; dissolved state, ethanol) | antihypertensive effects compared with C16-TR (SD rats [1]; 1 hour and 6 hours after airway nebulized administration, equimolar doses) | antihypertensive effect (SD rats [1]; 24 hours after airway nebulized administration)
4 | CCCCC[C@H](O)CC[C@@H]1[C@H]2Cc3cccc(OCC(=O)O)c3C[C@H]2C[C@H]1O [TRE, treprostinil] | strong agonist activity | competitively inhibited the binding of the ligand ^3H-PGE2 to the EP2 receptor in a concentration-dependent manner | about 39% | about 30 minutes |  |  |  |  |  |  |  |  |  |  |  | 

Source: patent EP4741374A1, “TREPROSTINIL DERIVATIVE, AND PREPARATION METHOD THEREFOR AND USE THEREOF” (CF PharmTech HongKong Limited, priority 2023, dated 2025)
